Data published in patent US20160130278A1 (TAISHO PHARMACEUTICAL CO., LTD, priority 2013, published 2016).

Biological target: T1, human type 1 glycine transporter (GlyT1) (Homo sapiens, UniProt P48067)
T1 construct: T98G cells (glioma cells) expressing human type 1 glycine transporter (GlyT1) were used
T1 sequence (P48067 1-706): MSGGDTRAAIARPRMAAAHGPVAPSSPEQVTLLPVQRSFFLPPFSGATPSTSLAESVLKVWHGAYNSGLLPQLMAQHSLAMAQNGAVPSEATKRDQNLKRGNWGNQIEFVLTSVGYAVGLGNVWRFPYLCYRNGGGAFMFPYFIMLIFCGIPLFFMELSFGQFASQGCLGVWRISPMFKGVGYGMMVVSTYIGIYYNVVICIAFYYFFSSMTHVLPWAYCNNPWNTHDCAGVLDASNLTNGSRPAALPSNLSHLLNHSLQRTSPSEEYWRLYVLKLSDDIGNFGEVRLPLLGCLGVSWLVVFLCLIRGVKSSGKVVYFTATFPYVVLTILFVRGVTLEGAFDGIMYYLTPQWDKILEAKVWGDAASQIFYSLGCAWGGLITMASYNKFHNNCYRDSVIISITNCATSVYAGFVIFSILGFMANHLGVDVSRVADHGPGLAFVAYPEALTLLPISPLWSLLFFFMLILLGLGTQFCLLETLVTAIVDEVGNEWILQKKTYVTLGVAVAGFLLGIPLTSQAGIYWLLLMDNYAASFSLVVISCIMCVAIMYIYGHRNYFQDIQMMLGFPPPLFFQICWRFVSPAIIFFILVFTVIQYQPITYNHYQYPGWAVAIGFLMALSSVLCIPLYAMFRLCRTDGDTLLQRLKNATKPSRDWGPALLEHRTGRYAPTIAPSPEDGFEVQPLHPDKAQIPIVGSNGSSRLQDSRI
Assay: Glycine uptake inhibition experiment ([3H]glycine uptake)
Assay type: cell-based
Settings: GlyT1
In short: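 T98G glioma cells expressing human GlyT1 were pretreated 10 min with compound in HEPES buffer pH 7.4 (0.2% BSA), then incubated with compound plus 250 nM final [3H]glycine for 15 min at room temperature. Intracellular radioactivity was counted after NaOH lysis; 10 μM ALX5407 defined non-specific uptake. IC50 came from 10^−9–10^−5 M curves.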

| IC50 | Compound |
| --- | --- |
| 95 nM | O=C(N[C@@H](c1cccc(Br)c1)[C@]1(O)CC[C@@H](F)CC1)c1nccc(C(F)(F)F)c1Cl [Compound 110, N-[(S)-(3-bromophenyl)(cis-4-fluoro-1-hydroxycyclohexyl)methyl]-3-chloro-4-(trifluoromethyl)pyridine-2-carboxamide] |
| 1800 nM | O=C(NC(c1cc(F)cc(Cl)c1)[C@]1(O)CC[C@@H](F)CC1)c1nccc(C(F)(F)F)c1Cl (single isomer, unassigned) [Compound 220, 3-chloro-N-[(3-chloro-5-fluorophenyl)(cis-4-fluoro-1-hydroxycyclohexyl)methyl]-4-(trifluoromethyl)pyridine-2-carboxamide] |
| 100 nM | O=C(NC(c1cccc(F)c1Cl)C1(O)CCC(F)(F)CC1)c1nccc(C(F)(F)F)c1Cl (single isomer, unassigned) [Compound 177, 3-chloro-N-[(2-chloro-3-fluorophenyl)(4,4-difluoro-1-hydroxycyclohexyl)methyl]-4-(trifluoromethyl)pyridine-2-carboxamide] |
| 120 nM | O=C(NC(c1cccc(F)c1F)C1(O)CCC(F)(F)CC1)c1nccc(C(F)(F)F)c1Cl (single isomer, unassigned) [Compound 164, 3-chloro-N-[(4,4-difluoro-1-hydroxycyclohexyl)(2,3-difluorophenyl)methyl]-4-(trifluoromethyl)pyridine-2-carboxamide] |
| 5600 nM | CCn1cc(-c2cccc(C(NC(=O)c3c(Cl)ccc(C(F)(F)F)c3Cl)C3(O)CCC(F)(F)CC3)c2)cn1 (single isomer, unassigned) [Compound 221, 2,6-dichloro-N-{(4,4-difluoro-1-hydroxycyclohexyl)[3-(1-ethyl-1H-pyrazol-4-yl)phenyl]methyl}-3-(trifluoromethyl)benzamide] |
| 960 nM | O=C(NC(c1cccc(C(F)(F)F)c1)C1(O)CCCC1)c1nccc(C(F)(F)F)c1Cl (stereo not shown) [Compound 81, 3-chloro-N-{(1-hydroxycyclopentyl)[3-(trifluoromethyl)phenyl]methyl}-4-(trifluoromethyl)pyridine-2-carboxamide] |
| 1400 nM | O=C(NC(c1cc(Cl)ccn1)[C@]1(O)CC[C@@H](F)CC1)c1nccc(C(F)F)c1Cl (single isomer, unassigned) [Compound 332, 3-chloro-N-[(4-chloropyridin-2-yl)(cis-4-fluoro-1-hydroxycyclohexyl)methyl]-4-(difluoromethyl)pyridine-2-carboxamide] |
| 270 nM | O=C(NC(c1cc(Cl)ccn1)[C@]1(O)CC[C@@H](F)CC1)c1ccc(C(F)(F)F)nc1Cl (single isomer, unassigned) [Compound 335, 2-chloro-N-[(4-chloropyridin-2-yl)(cis-4-fluoro-1-hydroxycyclohexyl)methyl]-6-(trifluoromethyl)pyridine-3-carboxamide] |
| 7100 nM | O=C(NC(c1cccc(F)c1)C1(O)CCCC1)c1cccc(C(F)(F)F)c1Cl (single isomer, unassigned) [Compound 72, 2-chloro-N-[(3-fluorophenyl)(1-hydroxycyclopentyl)methyl]-3-(trifluoromethyl)benzamide] |
| 920 nM | O=C(NC(c1cccc(CO)c1)C1(O)CCCC1)c1nccc(C(F)(F)F)c1Cl (stereo not shown) [Compound 104, 3-chloro-N-{(1-hydroxycyclopentyl)[3-(hydroxymethyl)phenyl]methyl}-4-(trifluoromethyl)pyridine-2-carboxamide] |
| 3900 nM | O=C(NC(c1cccc(F)c1Cl)[C@]1(O)CC[C@@H](F)CC1)c1nc(Cl)ccc1Cl (single isomer, unassigned) [Compound 279, 3,6-dichloro-N-[(2-chloro-3-fluorophenyl)(cis-4-fluoro-1-hydroxycyclohexyl)methyl]pyridine-2-carboxamide] |
| 5200 nM | O=C(NC(c1ccc(F)cc1Cl)C1(O)CCCC1)c1nccc(C(F)(F)F)c1Cl (single isomer, unassigned) [Compound 99, 3-chloro-N-[(2-chloro-4-fluorophenyl)(1-hydroxycyclopentyl)methyl]-4-(trifluoromethyl)pyridine-2-carboxamide] |
| 26 nM | O=C(NC(c1cccc(Cl)n1)C1(O)CCCCC1)c1ccnc(C(F)(F)F)c1Cl (single isomer, unassigned) [Compound 385, 3-chloro-N-[(6-chloropyridin-2-yl)(1-hydroxycyclohexyl)methyl]-2-(trifluoromethyl)pyridine-4-carboxamide] |
| 240 nM | O=C(NC(c1cccc(F)c1)C1(O)CCC(F)(F)CC1)c1nccc(C(F)(F)F)c1Cl (stereo not shown) [Compound 75, 3-chloro-N-[(4,4-difluoro-1-hydroxycyclohexyl)(3-fluorophenyl)methyl]-4-(trifluoromethyl)pyridine-2-carboxamide] |
| 27 nM | O=C(NC(c1cccc(F)c1Cl)[C@]1(O)CC[C@@H](F)CC1)c1ccc(C(F)(F)F)cc1-n1cnnn1 (single isomer, unassigned) [Compound 391, N-[(2-chloro-3-fluorophenyl)(cis-4-fluoro-1-hydroxycyclohexyl)methyl]-2-(1H-tetrazol-1-yl)-4-(trifluoromethyl)benzamide] |
| 510 nM | O=C(N[C@@H](c1cccc(Cl)c1)[C@]1(O)CC[C@@H](F)CC1)c1cc(C(F)(F)F)ncc1Cl [Compound 227, 5-chloro-N-[(S)-(3-chlorophenyl)(cis-4-fluoro-1-hydroxycyclohexyl)methyl]-2-(trifluoromethyl)pyridine-4-carboxamide] |
| 290 nM | O=C(NC(c1cccc(F)c1Cl)[C@]1(O)CC[C@@H](F)CC1)c1ccc(C(F)(F)F)nc1Cl (single isomer, unassigned) [Compound 304, 2-chloro-N-[[2-chloro-3-fluorophenyl)(cis-4-fluoro-1-hydroxycyclohexyl)methyl]-6-(trifluoromethyl)pyridine-3-carboxamide] |
| 44 nM | CCn1cc(-c2cccc(C(NC(=O)c3cccc(C(F)(F)F)c3Cl)C3(O)CCCCC3)c2)cn1 (stereo not shown) [Compound 16, 2-chloro-N-{[3-(1-ethyl-1H-pyrazol-4-yl)phenyl](1-hydroxycyclohexyl)methyl}-3-(trifluoromethyl)benzamide] |
| 40 nM | [2H]C1([2H])C([2H])([2H])C([2H])([2H])C(O)(C(NC(=O)c2nccc(C(F)(F)F)c2Cl)c2cccc(Cl)c2)C([2H])([2H])C1([2H])[2H] (single isomer, unassigned) [Compound 231, 3-chloro-N-{(3-chlorophenyl)[1-hydroxy(^2H10)cyclohexyl]methyl}-4-(trifluoromethyl)pyridine-2-carboxamide] |
| 320 nM | O=C(NC(c1cccnc1Cl)C1(O)CCC(F)(F)CC1)c1nccc(C(F)(F)F)c1Cl (single isomer, unassigned) [Compound 340, 3-chloro-N-[(2-chloropyridin-3-yl)(4,4-difluoro-1-hydroxycyclohexyl)methyl]-4-(trifluoromethyl)pyridine-2-carboxamide] |
| 1000 nM | O=C(NC(c1cccc(F)c1Cl)[C@]1(O)CC[C@@H](F)CC1)c1c(Cl)cccc1Cl (single isomer, unassigned) [Compound 254, 2,6-dichloro-N-[(2-chloro-3-fluorophenyl)(cis-4-fluoro-1-hydroxycyclohexyl)methyl]benzamide] |
| 180 nM | O=C(NC(c1ccccc1F)C1(O)CCCC1)c1nccc(C(F)(F)F)c1Cl (stereo not shown) [Compound 41, 3-chloro-N-[(2-fluorophenyl)(1-hydroxycyclopentyl)methyl]-4-(trifluoromethyl)pyridine-2-carboxamide] |
